The subject of one assay is Rat1a fibroblasts. Nature of the assay: Effect of exposure time on toxicity in Rat1a fibroblasts. The note with it: for toxicity with a two hour exposure: additional experiments; for toxicity of four hour versus six hour exposure: total incubation 96 hours. The assay is classed as cell-based, rat. The method, then:
Cells were plated at a density of 500 cells per well in opaque 96 well plates (Packard) in a volume of 135 μL per well of the appropriate media. The plates were incubated overnight to allow cell adherence. Seven two-fold dilutions of the test compounds were added in a volume of 15 μL per well in triplicate, and 15 μL of media containing an appropriate concentration of DMSO was added to control wells in triplicate. Plates were incubated at 37° C. for 96 hours. The media was then replaced with 100 μL per well of the appropriate media containing 2 μCi/mL of (methyl-^3H) thymidine (Amersham Pharmacia Biotech), then plates were incubated for a further 24 hours at 37° C. Cells were washed three times with PBS, then 100 μL per well of scintillant was added (Microscint 20, Packard), and sealed plates were counted in a microplate reader (Packard Topcount). For suspension chicken cells, (methyl-^3H) thymidine was added directly to the drug-containing media at a concentration of 20 μCi/mL (comprising one tenth of the media volume) and incubated overnight. The suspension cells were transferred to a UniFilter GF/C plate (Packard) and washed with PBS in a plate washer (Packard). After drying, 25 μL per well of scintillant (Microscint 20, Packard) was added, and sealed plates were counted. Toxicity is expressed as a percentage of the control counts. For experiments involving shorter exposures to compounds, cells were grown in the presence of compound for the appropriate time, then the media was replaced with fresh drug-free media, and incubation continued for the remainder of 96 hours, followed by the normal tritiated thymidine uptake and washing protocol.

Assay [1] relates to yeast lacking Ku70 (encoded by the HDF1 gene). The assay can be described thus: Yeast toxicity in NHEJ-deficient strain lacking Ku70 (hdf1). It is filed as cell-based. The method, then: Yeast toxicity assays were performed essentially as follows: Exponentially growing cultures of the appropriate strains were diluted in synthetic complete media to a concentration of 7.4×10^4 cells/mL, and aliquots (135 μL) were transferred to each well of clear flat-bottomed 96 well plates. Compounds were added in duplicate or triplicate as 15 μL of the appropriate dilution in 5% DMSO. A 15 μL portion of 5% DMSO was added to control wells. Assay plates were incubated at 30° C. for approximately seven generations growth in solvent control wells (as monitored by OD660, typically 21–24 hours), then the OD660 of the cultures was measured in a microplate reader (Bio-Tek). Cell growth (OD660) in treated wells was plotted as a percentage of the growth in at least four averaged solvent control wells for the same strain. Camptothecin sodium salt (camptothecin Na) was the agent used in all yeast assays as standard.
The sensitivity of yeast lacking Ku70 (encoded by the HDF1 gene) to camptothecin Na, compounds Ia and IIa, has now been examined. […] Thus the NHEJ pathway is not important for the repair of lesions induced by these compounds in yeast.

The text below walks through data of US7173063B1, “Topoisomerase poisons for the treatment of proliferative disorders” (Fred Hutchinson Cancer Research Center, priority 2000, dated 2007).

For the compound `O=C(CCl)Nc1ccc(C(=O)N/N=C/c2ccc(Cl)cc2)cc1` [compound Ia], in the assay with Rat1a fibroblasts, the “effectiveness of 96 hour exposure relative to four hour exposure” value is on record as “three- to five-fold”, the “toxicity with a two hour exposure” value is listed as “nearly full toxicity” and the “toxicity of four hour versus six hour exposure” value is on record as “equally effective”. The “sensitivity of NHEJ-deficient (hdf1) mutant compared with wild-type” value in assay [1] is reported as “indistinguishable from that of wild-type”.

As to `O=c1c(Cl)c(Cl)cnn1CCCl` [compound IIa], in the assay on Rat1a fibroblasts, the “effectiveness of 96 hour exposure relative to four hour exposure” value is “three- to five-fold”, the “toxicity with a two hour exposure” value is recorded as “nearly full toxicity” and the “toxicity of four hour versus six hour exposure” value is reported as “equally effective”. Besides, the “sensitivity of NHEJ-deficient (hdf1) mutant compared with wild-type” value in assay [1] is “indistinguishable from that of wild-type”.
